Legend:
Assay type in all cases: in vivo
Conditions in all cases: evaluated after 13 days
[1] = tested on: Avena fatua (AVEFA); assay: Post-emergence herbicidal activity, Avena fatua; parameters: key: 5=total damage to plant; 0=no damage to plant
Procedure, shortened: (§1)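 Pot-grown plants sprayed 8 days after sowing with compound in acetone/water (50:50) containing 0.5% Tween 20, in a glasshouse at 24/16 °C day/night, 14 h light, 65% humidity. Damage scored 13 days after spraying on a 0–5 scale (5 = total damage, 0 = none).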

[2] = tested on: Triticum aestivium (TRZAW); assay: Pre-emergence herbicidal activity, Triticum aestivium; parameters: key: 5=total damage to plant; 0=no damage to plant
Procedure, shortened: (§2)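 Damage rated on a 0 (none) to 5 (total) scale 13 days after treatment. Spray was an aqueous solution from an acetone/water (50:50) formulation with 0.5% Tween 20, applied pre-emergence one day post-sowing; plants kept in a glasshouse at 24/16 °C, 14 h light, 65% humidity.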

[3] = tested on: Alopecurus myosuroides (ALOMY); assay: Post-emergence herbicidal activity, Alopecurus myosuroides; parameters: key: 5=total damage to plant; 0=no damage to plant
Procedure, shortened: as §1

[4] = tested on: Setaria faberi (SETFA); assay: Pre-emergence herbicidal activity, Setaria faberi; parameters: key: 5=total damage to plant; 0=no damage to plant
Procedure, shortened: as §2

[5] = tested on: Alopecurus myosuroides (ALOMY); assay: Pre-emergence herbicidal activity, Alopecurus myosuroides; parameters: key: 5=total damage to plant; 0=no damage to plant
Procedure, shortened: as §2

[6] = tested on: Lolium perenne (LOLPE); assay: Post-emergence herbicidal activity, Lolium perenne
Procedure, shortened: as §1

[7] = tested on: Avena fatua (AVEFA); assay: Pre-emergence herbicidal activity, Avena fatua; parameters: key: 5=total damage to plant; 0=no damage to plant
Procedure, shortened: as §2

[8] = tested on: Lolium perenne (LOLPE); assay: Pre-emergence herbicidal activity, Lolium perenne; parameters: key: 5=total damage to plant; 0=no damage to plant
Procedure, shortened: as §2

[9] = tested on: Setaria faberi (SETFA); assay: Post-emergence herbicidal activity, Setaria faberi; parameters: key: 5=total damage to plant; 0=no damage to plant
Procedure, shortened: as §1

[10] = tested on: Triticum aestivium (TRZAW); assay: Post-emergence herbicidal activity, Triticum aestivium; parameters: key: 5=total damage to plant; 0=no damage to plant
Procedure, shortened: as §1

[11] = tested on: Echinochloa crus-galli (ECHCG); assay: Pre-emergence herbicidal activity, Echinochloa crus-galli
Procedure, shortened: as §2

[12] = tested on: Echinochloa crus-galli (ECHCG); assay: Post-emergence herbicidal activity, Echinochloa crus-galli; parameters: key: 5=total damage to plant; 0=no damage to plant
Procedure, shortened: as §1

| SMILES | Control of AVEFA after post-emergence application (score 0-5) ([1]; 1000 g/ha) | Control of TRAZW after pre-emergence application (score 0-5) ([2]; 1000 g/ha) | Control of ALOMY after post-emergence application (score 0-5) ([3]; 1000 g/ha) | Control of SETFA after pre-emergence application (score 0-5) ([4]; 1000 g/ha) | Control of ALOMY after pre-emergence application (score 0-5) ([5]; 1000 g/ha) | Control of LOLPE after post-emergence application (score 0-5) ([6]; 1000 g/ha) | Control of AVEFA after pre-emergence application (score 0-5) ([7]; 1000 g/ha) | Control of LOLPE after pre-emergence application (score 0-5) ([8]; 1000 g/ha) | Control of SETFA after post-emergence application (score 0-5) ([9]; 1000 g/ha) | Control of TRAZW after post-emergence application (score 0-5) ([10]; 1000 g/ha) | Control of ECHCG after pre-emergence application (score 0-5) ([11]; 1000 g/ha) | Control of ECHCG after post-emergence application (score 0-5) ([12]; 1000 g/ha) | further results |
| --- | --- | --- | --- | --- | --- | --- | --- | --- | --- | --- | --- | --- | --- |
| N#CCCOC(=O)Nc1ccc(-c2cncc(F)c2)nc1C(F)(F)F [Compound B62] | 3 | 0 | 0 | 3 | 1 | 2 | 2 | 1 | 4 | 0 | 3 | 5 | – |
| CCC(C)OC(=O)Nc1ccc(-c2cncc(F)c2)nc1C(F)(F)F (stereo not drawn) [Compound B56] | 3 | 0 | 0 | 2 | 0 | 3 | 1 | 0 | 4 | 0 | 1 | 4 | – |
| CC(C)(C)NC(=O)Nc1ccc(-c2cncc(F)c2)nc1C(F)(F)F [Compound B65] | 3 | 0 | 1 | 3 | 1 | 3 | 2 | 1 | 4 | 0 | 2 | 5 | – |
| O=C(NCc1ccc(Cl)cc1)Nc1ccc(-c2cncc(F)c2)nc1C(F)(F)F [Compound B38] | 2 | 0 | 0 | 3 | 0 | 2 | 0 | 0 | 4 | 0 | 1 | 2 | – |
| O=C(NCC1CCCCC1)Nc1ccc(-c2cncc(F)c2)nc1C(F)(F)F [Compound B80] | – | – | – | – | – | – | – | – | – | – | – | – | Control of AVEFA after post-emergence application (score 0-5) ([1]; 250 g/ha): 2; Control of TRAZW after pre-emergence application (score 0-5) ([2]; 250 g/ha): 0; Control of ALOMY after post-emergence application (score 0-5) ([3]; 250 g/ha): 0; Control of SETFA after pre-emergence application (score 0-5) ([4]; 250 g/ha): 2; Control of ALOMY after pre-emergence application (score 0-5) ([5]; 250 g/ha): 0; Control of LOLPE after post-emergence application (score 0-5) ([6]; 250 g/ha): 1; Control of AVEFA after pre-emergence application (score 0-5) ([7]; 250 g/ha): 1; Control of LOLPE after pre-emergence application (score 0-5) ([8]; 250 g/ha): 2; Control of SETFA after post-emergence application (score 0-5) ([9]; 250 g/ha): 2; Control of TRAZW after post-emergence application (score 0-5) ([10]; 250 g/ha): 0; Control of ECHCG after pre-emergence application (score 0-5) ([11]; 250 g/ha): 1; Control of ECHCG after post-emergence application (score 0-5) ([12]; 250 g/ha): 1 |
| COC(=O)c1nc(-c2cncc(F)c2)ccc1N(C(=O)OC(C)(C)C)C(=O)OC(C)(C)C [Compound B76, methyl 3-[bis(tert-butoxycarbonyl)amino]-6-(5-fluoro-3-pyridyl)pyridine-2-carboxylate] | 0 | 0 | 0 | 3 | 0 | 1 | 0 | 0 | 3 | 0 | 1 | 1 | – |
| O=C(NCC1CC1)Nc1ccc(-c2cncc(F)c2)nc1C(F)(F)F [Compound B104] | – | – | – | – | – | – | – | – | – | – | – | – | Control of AVEFA after post-emergence application (score 0-5) ([1]; 250 g/ha): 3; Control of TRAZW after pre-emergence application (score 0-5) ([2]; 250 g/ha): 0; Control of ALOMY after post-emergence application (score 0-5) ([3]; 250 g/ha): 1; Control of SETFA after pre-emergence application (score 0-5) ([4]; 250 g/ha): 5; Control of ALOMY after pre-emergence application (score 0-5) ([5]; 250 g/ha): 0; Control of LOLPE after post-emergence application (score 0-5) ([6]; 250 g/ha): 1; Control of AVEFA after pre-emergence application (score 0-5) ([7]; 250 g/ha): 0; Control of LOLPE after pre-emergence application (score 0-5) ([8]; 250 g/ha): 1; Control of SETFA after post-emergence application (score 0-5) ([9]; 250 g/ha): 5; Control of TRAZW after post-emergence application (score 0-5) ([10]; 250 g/ha): 0; Control of ECHCG after pre-emergence application (score 0-5) ([11]; 250 g/ha): 2; Control of ECHCG after post-emergence application (score 0-5) ([12]; 250 g/ha): 3 |
| O=C(Nc1ccc(-c2cncc(F)c2)nc1C(F)(F)F)OC1CCOCC1 [Compound B93] | – | – | – | – | – | – | – | – | – | – | – | – | Control of AVEFA after post-emergence application (score 0-5) ([1]; 250 g/ha): 4; Control of TRAZW after pre-emergence application (score 0-5) ([2]; 250 g/ha): 0; Control of ALOMY after post-emergence application (score 0-5) ([3]; 250 g/ha): 0; Control of SETFA after pre-emergence application (score 0-5) ([4]; 250 g/ha): 5; Control of ALOMY after pre-emergence application (score 0-5) ([5]; 250 g/ha): 0; Control of LOLPE after post-emergence application (score 0-5) ([6]; 250 g/ha): 3; Control of AVEFA after pre-emergence application (score 0-5) ([7]; 250 g/ha): 2; Control of LOLPE after pre-emergence application (score 0-5) ([8]; 250 g/ha): 1; Control of SETFA after post-emergence application (score 0-5) ([9]; 250 g/ha): 5; Control of TRAZW after post-emergence application (score 0-5) ([10]; 250 g/ha): 0; Control of ECHCG after pre-emergence application (score 0-5) ([11]; 250 g/ha): 4; Control of ECHCG after post-emergence application (score 0-5) ([12]; 250 g/ha): 5 |
| CNC(=O)Nc1ccc(-c2cncc(F)c2)nc1C(F)(F)F [Compound B49] | 2 | 0 | 0 | 4 | 0 | 2 | 2 | 0 | 4 | 0 | 3 | 4 | – |
| O=C(Nc1cncnc1)Nc1ccc(-c2cncc(F)c2)nc1C(F)(F)F [Compound B70] | 1 | 0 | 0 | 2 | 0 | 1 | 0 | 0 | 3 | 1 | 1 | 3 | – |
| CNC(=O)N(C)c1ccc(-c2cncc(F)c2)nc1C(F)(F)F [Compound B73] | 3 | 0 | 1 | 4 | 0 | 2 | 0 | 1 | 4 | 1 | 2 | 4 | – |
| CN(C(=O)OC(C)(C)C)c1ccc(-c2cc(F)c[n+]([O-])c2)nc1C(F)(F)F [Compound B1, tert-butyl N-[6-(5-fluoro-1-oxido-pyridin-1-ium-3-yl)-2-(trifluoromethyl)-3-pyridyl]-N-methyl-carbamate] | 4 | 0 | 1 | 4 | 0 | 2 | 2 | 1 | 5 | 0 | 2 | 4 | – |
